Test results from patent publication US20130011495A1, “ANTIFUNGAL COMPOUNDS AND USE THEREOF” (priority 2009, published 2013).
“Also recorded” adds a separate entry of the source. Like-named read-outs stand apart in the source and are kept apart here.

Columns and labels:
esca = conditions: 18.5 g/L injected into the trunk; cited from earlier work
[1] = test system: Phaeomoniella chlamydospora; assay: Mycelial growth on solid medium; conditions: for inhibition of growth, dose dependence: 5, 10 and 20 mM (whatever concentration); for inhibition of growth, dose dependence / inhibition of growth: FIG. 5 A; for inhibition of fungal development: FIG. 6 A
[2] = test system: Phaeoacremonium aleophilum; assay: Mycelial growth on solid medium; conditions: for inhibition of development, dose dependence: 5, 10 and 20 mM
Inonotus obliquus = conditions: concentrations of 0.9 and 9 mM; cited from earlier work
leaves = assay: Tests of phytotoxicity (upper limits of amounts); format: in vivo
Description: According to the invention, the upper limits of amounts of the different products were determined in tests of phytotoxicity. First symptoms appear on the leaves at these amounts. […] These amounts can be slightly different or even greater depending on the sensitivity of the plant.

[3] = in vivo; cited from earlier work
Eutypa lata = conditions: pH 4.1; cited from earlier work
[4] = cited from earlier work
[5] = sulfate 40 mM in BNM, solid medium pH 4.2, 18 days
[6] = sulfate 40 mM in BNM, solid medium pH 4.2, 12 days
[7] = 40 mM, used as the only nitrogen source (results not shown)
[8] = Phaeomoniella chlamydospora, 432 h, pH 4.2, read-out: inhibition of growth
[9] = Phaeoacremonium minimum, 288 h, pH 4.2, read-out: inhibition of growth
[10] = Phaeomoniella chlamydospora, 432 h, pH 4.2, read-out: inhibition of mycelial development
[11] = ferrous salt 5 mM, solid medium pH 4.2, 18 days
[12] = ferrous salt 10 mM, solid medium pH 4.2, 18 days
[13] = ferrous salt 10 mM, FIG. 5 B, solid medium pH 4.2, 12 days
[14] = ferrous salt 20 mM, FIG. 5 B, solid medium pH 4.2, 12 days
[15] = 14C-labeled SA at 10 μM, after 4 hours of absorption

Q: With O=C([O-])c1ccccc1O.[K+] as the compound, how does the efficacy on esca (esca) read?
A: 45.4%

Q: For O=S(=O)([O-])[O-].[Cu+2] [CuSO4, copper sulfate], which inhibition [1, 5] is on record?
A: 100% inhibition

Q: And the inhibition ([1]; sulfate 40 mM in BNM, solid medium pH 4.2, 18 days, listed as copper sulfate)?
A: completely inhibit

Q: What about the inhibition [2, 6] of the same compound?
A: 100% inhibition

Q: And the inhibition ([2]; sulfate 40 mM in BNM, solid medium pH 4.2, 12 days, listed as copper sulfate)?
A: completely inhibit

Q: What does the source list for O=S(=O)([O-])[O-].[K+].[K+] [K2SO4, potassium sulfate]?
A: inhibition [1, 5]: — (—: no inhibition); inhibition [2, 6]: — (—: no inhibition)

Q: With O=S(=O)([O-])[O-].[Mg+2] [MgSO4, magnesium sulfate] as the compound, how does the inhibition [1, 5] read?
A: — (—: no inhibition)

Q: And the inhibition [2, 6]?
A: — (—: no inhibition)

Q: With N.N.O=S(=O)(O)O [ammonium sulfate] as the compound, how does the growth [1, 7] read?
A: slows the growth

Q: What about the inhibition [1, 5] of the same compound?
A: — (—: no inhibition)

Q: And the growth [2, 7]?
A: slows the growth

Q: What about the inhibition [2, 6] of the same compound?
A: — (—: no inhibition)

Q: Which inhibition at 500 µM [1, 8] does the source give for N[C@@H](CS)C(=O)O [cysteine, L-cysteine] here?
A: 0%

Q: And the inhibition at 1000 µM [1, 8]?
A: 13%

Q: What about the inhibition at 5000 µM [1, 8] of the same compound?
A: 34%

Q: What about the inhibition at 10000 µM [1, 8] of the same compound?
A: 80%

Q: What about the inhibition of development (Inonotus obliquus) of the same compound?
A: inhibits the development

Q: And the inhibition at 500 µM [2, 9]?
A: 11%

Q: And the inhibition at 1000 µM [2, 9]?
A: 18%

Q: What about the inhibition at 5000 µM [2, 9] of the same compound?
A: 24%

Q: And the inhibition at 10000 µM [2, 9]?
A: 37%

Q: With CCO[PH](=O)O [fosetyl-aluminum, aluminum tris-O-ethylphosphonate] as the compound, how does the inhibition at 1000 µM [1, 10] read?
A: 6%

Q: What about the inhibition at 1700 µM [1, 10] of the same compound?
A: 14%

Q: And the inhibition at 2700 µM [1, 10]?
A: 46%

Q: And the inhibition at 3400 µM [1, 10]?
A: 86%

Q: What about the “inhibition of mycelial development” value ([1]; fosetyl-aluminum 0.3 mM, FIG. 7 A, solid medium pH 4.2, 18 days) of the same compound?
A: no effect

Q: What about the “upper limit of amount determined in tests of phytotoxicity (first symptoms appear on the leaves)” value (leaves; in vivo) of the same compound?
A: 81 mM

Q: What about the “pH of maximum absorption” value [3] of the same compound?
A: 5.0

Q: What about the “time of detection in the phloem exudate after application” value [3] of the same compound?
A: 30 min

Q: And the inhibition at 1700 µM [2, 9]?
A: ~6%

Q: And the inhibition at 2700 µM [2, 9]?
A: 30%

Q: And the inhibition at 3400 µM [2, 9]?
A: 45%

Q: What about the inhibition of growth ([2]; fosetyl-aluminum 0.3 mM, FIG. 7 B, solid medium pH 4.2, 12 days) of the same compound?
A: no effect

Q: And the inhibition of growth ([2]; fosetyl-aluminum 1 mM, FIG. 7 B, solid medium pH 4.2, 12 days)?
A: no effect

Q: With CC(=O)[O-].CC(=O)[O-].[Fe+2] [iron acetate] as the compound, how does the “inhibition of growth, dose dependence” value [1] read?
A: dose-dependent inhibition

Q: What about the inhibition of growth [1, 11] of the same compound?
A: 40%

Q: What about the inhibition of growth [1, 12] of the same compound?
A: completely inhibited

Q: And the “inhibition of development, dose dependence” value ([2]; FIG. 5 B)?
A: dose-dependent inhibition

Q: And the inhibition of growth [2, 13]?
A: 45%

Q: And the inhibition of growth [2, 14]?
A: completely inhibited

Q: Which “inhibition of growth, dose dependence” value [1] does the source give for O.O.O.O.O.O.O.O=S(=O)([O-])[O-].[Fe+2] [iron sulfate] here?
A: dose-dependent inhibition

Q: And the inhibition ([1]; FeSO4 1 mM in BNM, solid medium pH 4.2, 18 days)?
A: 4% inhibition

Q: And the inhibition ([1]; FeSO4 2.5 mM in BNM, solid medium pH 4.2, 18 days)?
A: 21% inhibition

Q: And the inhibition ([1]; FeSO4 5 mM in BNM, solid medium pH 4.2, 18 days)?
A: 64% inhibition

Q: And the inhibition ([1]; FeSO4 10 mM in BNM, solid medium pH 4.2, 18 days)?
A: 95% inhibition

Q: What about the inhibition of growth [1, 11] of the same compound?
A: 65%

Q: What about the inhibition of growth [1, 12] of the same compound?
A: not the case

Q: What about the inhibition [1, 5] of the same compound?
A: completely inhibit

Q: And the inhibition ([1]; sulfate 40 mM in BNM, solid medium pH 4.2, 18 days, listed as FeSO4)?
A: 100% inhibition

Q: What about the “upper limit of amount determined in tests of phytotoxicity (first symptoms appear on the leaves)” value (leaves; concentration in the composition) of the same compound?
A: 160 mM

Q: And the “inhibition of development, dose dependence” value ([2]; FIG. 5 B)?
A: dose-dependent inhibition

Q: What about the inhibition ([2]; FeSO4 1 mM in BNM, solid medium pH 4.2, 12 days) of the same compound?
A: 15% inhibition

Q: What about the inhibition ([2]; FeSO4 2.5 mM in BNM, solid medium pH 4.2, 12 days) of the same compound?
A: 23.5% inhibition

Q: And the inhibition ([2]; FeSO4 5 mM in BNM, solid medium pH 4.2, 12 days)?
A: 33% inhibition

Q: What about the inhibition ([2]; FeSO4 10 mM in BNM, solid medium pH 4.2, 12 days) of the same compound?
A: 85% inhibition

Q: What about the inhibition of growth ([2]; ferrous salt 5 mM, FIG. 5 B, solid medium pH 4.2, 12 days) of the same compound?
A: more inhibited with iron sulfate than with iron chloride and acetate

Q: What about the inhibition of growth [2, 13] of the same compound?
A: 75%

Q: And the inhibition of growth [2, 14]?
A: slight development

Q: And the inhibition [2, 6]?
A: completely inhibit

Q: And the inhibition ([2]; sulfate 40 mM in BNM, solid medium pH 4.2, 12 days, listed as FeSO4)?
A: 100% inhibition

Q: For O=C(O)c1ccccc1O [salicylic acid, 2-hydroxybenzoic acid], which inhibition at 500 µM [1, 8] is on record?
A: 10%

Q: What about the inhibition at 1000 µM [1, 8] of the same compound?
A: 28%

Q: What about the “inhibition of fungal development” value ([1]; salicylic acid 0.05 mM, solid medium pH 4.2, 18 days) of the same compound?
A: does not inhibit

Q: What about the “inhibition of fungal development” value ([1]; salicylic acid 0.1 mM, solid medium pH 4.2, 18 days) of the same compound?
A: does not inhibit

Q: What about the “threshold value of antifungal action” value (Eutypa lata) of the same compound?
A: ~0.1 mM

Q: What about the “concentration detected in phloem sap” value [4, 15] of the same compound?
A: 100 µM

Q: What about the “concentration detected in xylem sap” value [4, 15] of the same compound?
A: 0.67 µM

Q: And the “concentration factor in the phloem” value ([4]; pH between 4.6 and 5.0)?
A: ~10

Q: What about the inhibition at 500 µM [2, 9] of the same compound?
A: 50%

Q: What about the inhibition of development ([2]; salicylic acid 0.05 mM, FIG. 6 B, solid medium pH 4.2, 12 days) of the same compound?
A: slightly inhibited

Q: And the inhibition of growth ([2]; salicylic acid 1 mM, FIG. 6 B, solid medium pH 4.2, 12 days)?
A: inhibited completely

Q: Which “inhibition of growth, dose dependence” value [1] does the source give for iron chloride here?
A: dose-dependent inhibition; also recorded: comparable to that obtained with iron sulfate

Q: What about the inhibition of growth [1, 12] of the same compound?
A: not the case

Q: And the “inhibition of development, dose dependence” value ([2]; FIG. 5 B)?
A: dose-dependent inhibition

Q: And the inhibition of growth [2, 13]?
A: 75%

Q: And the inhibition of growth [2, 14]?
A: completely inhibited
